The text below walks through data of patent US20220296595A1, “CDK INHIBITORS” (QILU REGOR THERAPEUTICS INC., priority 2019, published 2022).

The test system of assay [1] is phosphorylation of Retinoblastoma Protein (pRb Ser807/811 or Ser780) in T47D cells. The assay can be described thus: Inhibition of phosphorylation of retinoblastoma protein (pRb) in T47D cell (ELISA). It counts as cell-based, human. The conditions noted are these: Homo sapiens, T47D, read-out: Phospho T47D Ser807 IC50, pRb Ser807 phosphorylation, T47D cells. On the procedure:
T47D breast cancer cells from American Type Culture Collection (ATCC, HTB-133) were plated at 40,000 cells/well in 96-well plates, and were incubated in RPMI 1640 medium (Gibco, 31800105) with 10% Fetal Bovine Serum (FBS, Biowest, FB-1058). Cells were then allowed to adhere overnight at 37° C., 5% CO2. The following day, compounds were titrated in a 3-fold dilution scheme, and the highest compound concentration tested was […]. After 24 hours incubation with compounds, cells were lysed in ice-cold lysis buffer containing phosphatase inhibitor cocktail and 1 mM PMSF. Cell lysates (50 μL/well) were then transferred to ELISA plates (pRb Ser807/811 ELISA kit, Cell Signaling, 13152 or pRb Ser780 ELISA kit, Cell Signaling, 13016)). Plates were incubated overnight at 4° C., with constant slow speed shaking. After incubation, plates were washed following manufacturer's recommendations, and then 100 μL reconstituted detection antibody was added to each well and incubated for 1 hour at 37° C. After incubation, plates were washed, and then 100 μL reconstituted HRP-linked secondary antibody was added to each well and incubated for 30 mins at 37° C. After incubation, plates were washed. Then, 100 μL TMB substrate was added to each well and incubated for 10 min at 37° C. or 30 min at 25° C. Finally, 100 μL of STOP solution was added to each well and mixed gently for a few seconds. Plates were read on the Envision plate reader (PerkinElmer, 2104-0010) using the 96-well […] mode. IC50 values were calculated using 4 parameter sigmoidal dose-response model of Xlfit5/GraphPad Prism 5 software.

The target of another assay is T1, CDK6/CyclinD3 (Homo sapiens, UniProt Q00534).
T1 construct: purchased Carna 04-107
The assay can be described thus: Assay for inhibition of CDK6/CyclinD3 (Caliper microfluidic kinase assay). It counts as biochemical. The conditions noted are these: CDK6/CyclinD3, 300 μM ATP. Summed up: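 Caliper mobility-shift readout of FAM-labelled peptide (FL-34, 1 μM) phosphorylation by 2 nM CDK6/CyclinD3 at 300 μM ATP in HEPES pH 7.5 buffer with MgCl2, DTT; 3 h at room temperature, EDTA stop. IC50 from 4-parameter sigmoidal fit.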

The target of another assay is T2, CDK2/CyclinE1 (Homo sapiens, UniProt P24941).
T2 construct: purchased SignalChem C29-18G
The assay can be described thus: Assay for inhibition of CDK2/CyclinE1 (Caliper microfluidic kinase assay). It counts as biochemical. As to conditions: CDK2/CyclinE1, 100 μM ATP; read-out: CDK2 IC50. Summed up: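 Caliper microfluidic mobility-shift assay: 5 nM CDK2/CyclinE1, 100 μM ATP, 5 μM FL-18 peptide (5-FAM-QSPKKG-NH2) in pH 7.5 HEPES buffer with MgCl2, DTT, BSA, Triton X-100. Incubated 3 hours at room temperature, EDTA-stopped; IC50 from 4-parameter sigmoidal fit.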

For a further assay, the target named is T3, CDK4/CyclinD1 (Homo sapiens, UniProt P11802).
T3 construct: purchased Thermofisher PR8064A
The assay can be described thus: Assay for inhibition of CDK4/CyclinD1 (Caliper microfluidic kinase assay). The conditions noted are these: CDK4/CyclinD1, 200 μM ATP. It counts as biochemical. An outline of the steps:
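Caliper microfluidic mobility-shift assay tracking phosphorylation of 1 μM FL-34 peptide by 1 nM CDK4/CyclinD1 with 200 μM ATP in HEPES pH 7.5 buffer with 10 mM MgCl2. Reaction ran 3 h at room temperature, was stopped with EDTA, and IC50 came from a 4-parameter sigmoidal fit.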

The test system of the next assay is T47D breast cancer cells. The assay can be described thus: Anti-proliferation assay in T47D cell (Cyquant, day 6). The conditions noted are these: Homo sapiens, T47D, anti-proliferation, T47D cells; read-out: T47D IC50. It counts as cell-based, human. Summed up:
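Cells were grown in RPMI 1640 with 10% FBS at 37 °C and dosed the day after plating at ten concentrations, 10 μM to 0.51 nM in 3-fold steps. CyQuant fluorescence (ex 485/em 535 nm) was read on day 6. IC50 was fitted from baseline-subtracted viability curves, with the baseline read after overnight culture.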

T3 sequence (P11802 whole entry): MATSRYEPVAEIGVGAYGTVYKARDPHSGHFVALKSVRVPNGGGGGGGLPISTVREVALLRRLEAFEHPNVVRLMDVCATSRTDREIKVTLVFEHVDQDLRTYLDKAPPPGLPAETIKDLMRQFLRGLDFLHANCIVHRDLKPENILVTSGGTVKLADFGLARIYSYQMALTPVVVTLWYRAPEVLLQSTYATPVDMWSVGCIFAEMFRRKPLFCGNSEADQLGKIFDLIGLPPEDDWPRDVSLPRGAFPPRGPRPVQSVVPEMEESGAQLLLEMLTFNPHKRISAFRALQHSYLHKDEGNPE
T3 sequence (P24385 whole entry partner): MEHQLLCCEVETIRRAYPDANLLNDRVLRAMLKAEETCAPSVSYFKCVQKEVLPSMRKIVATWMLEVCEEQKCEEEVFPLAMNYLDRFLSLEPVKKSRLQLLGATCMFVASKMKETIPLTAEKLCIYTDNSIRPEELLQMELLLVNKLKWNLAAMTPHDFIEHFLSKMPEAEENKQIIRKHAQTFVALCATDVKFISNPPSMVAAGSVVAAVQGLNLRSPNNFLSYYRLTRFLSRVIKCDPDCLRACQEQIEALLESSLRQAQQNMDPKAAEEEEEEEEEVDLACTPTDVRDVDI
T1 sequence (Q00534 whole entry): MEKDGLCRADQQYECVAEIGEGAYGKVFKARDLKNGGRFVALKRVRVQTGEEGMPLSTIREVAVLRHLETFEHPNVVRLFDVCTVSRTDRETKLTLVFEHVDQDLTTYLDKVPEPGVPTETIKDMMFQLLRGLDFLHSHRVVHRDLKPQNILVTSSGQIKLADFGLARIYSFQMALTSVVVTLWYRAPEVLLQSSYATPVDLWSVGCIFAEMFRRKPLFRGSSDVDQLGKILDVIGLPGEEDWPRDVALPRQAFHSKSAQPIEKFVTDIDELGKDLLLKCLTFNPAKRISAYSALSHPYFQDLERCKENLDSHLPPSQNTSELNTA
T1 sequence (P30281 whole entry partner): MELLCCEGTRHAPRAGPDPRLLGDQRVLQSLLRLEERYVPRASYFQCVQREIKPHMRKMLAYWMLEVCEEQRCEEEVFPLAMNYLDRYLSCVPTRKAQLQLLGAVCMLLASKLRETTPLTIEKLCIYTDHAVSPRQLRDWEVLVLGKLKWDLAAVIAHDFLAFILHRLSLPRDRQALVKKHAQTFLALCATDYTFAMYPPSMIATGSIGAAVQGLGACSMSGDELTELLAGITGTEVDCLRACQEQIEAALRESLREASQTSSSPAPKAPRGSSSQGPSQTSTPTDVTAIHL

Regarding `CCN1CCN(c2ccc(Nc3nccc(-c4cc5c(ncn5C(C)C)c(OC)n4)n3)nc2)C(=O)C1` [compound 134], the IC50 in assay [1] was < 0.1 µM; against CDK6/CyclinD3, 0.01 to 0.1 µM; at CDK2/CyclinE1 it was 0.1 to 1 µM; against CDK4/CyclinD1, < 0.01 µM.

Take `COc1nc(-c2nc(Nc3ccc(N4CCN(C5CCOCC5)CC4=O)cn3)ncc2F)cc2c1nc(C)n2C(C)C` [compound 136]: the IC50 in assay [1] is 0.1 to 0.5 µM; against CDK6/CyclinD3 it was 0.01 to 0.1 µM; on CDK2/CyclinE1, > 1 µM; against CDK4/CyclinD1 it was < 0.01 µM.

Take `COc1nc(-c2ccnc(Nc3ccc(N4CCN(C5COC5)CC4=O)cn3)n2)cc2c1ncn2C(C)C` [compound 137]: the IC50 in assay [1] was < 0.1 µM; against CDK6/CyclinD3, 0.01 to 0.1 µM; on CDK2/CyclinE1, 0.1 to 1 µM; on CDK4/CyclinD1, < 0.01 µM.

Turning to `CC(C)c1cnn2ccc(-c3ccnc(Nc4ccc(C(=O)N5CCC5)cc4)n3)cc12` [compound 169], the IC50 in assay [1] was < 0.1 µM; against CDK6/CyclinD3 it was 0.01 to 0.1 µM; on CDK2/CyclinE1, < 0.01 µM; against CDK4/CyclinD1, < 0.01 µM.

Take `CCNC1CCN(c2ccc(Nc3nccc(-c4ccn5ncc(C(C)C)c5c4)n3)nc2)C(=O)C1` (centres unmarked) [compound 209]: the IC50 is < 0.1 µM in assay [1], < 0.01 µM on CDK2/CyclinE1, < 0.01 µM on CDK4/CyclinD1 and < 0.1 µM in the assay with T47D breast cancer cells.

In the case of `CC(C)(C)c1cnn2ccc(-c3ccnc(Nc4ccc(N5CCCC(N)C5=O)cc4)n3)cc12` (centres unmarked) [compound 218], the IC50 was < 0.1 µM in assay [1], < 0.01 µM against CDK6/CyclinD3, < 0.01 µM at CDK2/CyclinE1 and < 0.01 µM at CDK4/CyclinD1.

On to `CC(C)c1cnn2ccc(-c3ccnc(Nc4ccc(N5CCNCC5=O)nc4)n3)cc12` [compound 227], for which the IC50 in assay [1] is < 0.1 µM; on CDK2/CyclinE1 it was < 0.01 µM; against CDK4/CyclinD1 it was < 0.01 µM; with T47D breast cancer cells, < 0.1 µM.

As for `CC(C)n1cnc2c1CN(c1ccnc(Nc3ccc(N4CCN(S(C)(=O)=O)CC4=O)cn3)n1)CC2` [compound 240], the IC50 is > 1 µM in assay [1], 0.01 to 0.1 µM at CDK2/CyclinE1, 0.01 to 0.1 µM against CDK4/CyclinD1 and > 1 µM in the assay with T47D breast cancer cells.

Turning to `CCN1CCN(c2ccc(Nc3nccc(N4CCc5ncn(C(C)C)c5C4)n3)nc2)C(=O)C1` [compound 241], the IC50 in assay [1] is < 0.1 µM; on CDK2/CyclinE1 it was 0.1 to 1 µM; against CDK4/CyclinD1, 0.01 to 0.1 µM; in the assay on T47D breast cancer cells it was 0.1 to 0.5 µM.

With `CC(C)n1cnc2c1CN(c1ccnc(Nc3ccc(N4CCC(N5CC(F)C5)CC4=O)cn3)n1)CC2` (centres unmarked) [compound 243], the IC50 in assay [1] fell in the range of 0.1 to 0.5 µM; at CDK2/CyclinE1, 0.01 to 0.1 µM; on CDK4/CyclinD1 it was 0.01 to 0.1 µM; in the assay on T47D breast cancer cells it was 0.5 to 1 µM.

`CN(C)C1CCCN(c2ccc(Nc3nccc(-c4cc(F)c5c(c4)C(C)(C)CO5)n3)nc2)C1=O` (centres unmarked) [compound 261]: the IC50 was < 0.1 µM in assay [1], 0.01 to 0.1 µM against CDK6/CyclinD3, > 1 µM at CDK2/CyclinE1 and < 0.01 µM at CDK4/CyclinD1.

Regarding `CC1(C)COc2c(F)cc(-c3ccnc(Nc4ccc(N5CCCNC5=O)cn4)n3)cc21` [compound 262], the IC50 in assay [1] is < 0.1 µM; on CDK2/CyclinE1, 0.1 to 1 µM; at CDK4/CyclinD1 it was < 0.01 µM; in the assay with T47D breast cancer cells, < 0.1 µM.

`CC(C)n1cnc2c(F)nc(-c3ccnc(Nc4ccc(N5CCC(C)(N)CC5=O)cn4)n3)cc21` (centres unmarked) [compound 271]: the IC50 in assay [1] was < 0.1 µM; on CDK6/CyclinD3, < 0.01 µM; on CDK2/CyclinE1 it was 0.01 to 0.1 µM; on CDK4/CyclinD1, < 0.01 µM.

With `CC(C)n1cnc2c(F)nc(-c3ccnc(Nc4ccc(N5CCCNC5=O)cn4)n3)cc21` [compound 275], the IC50 in assay [1] was < 0.1 µM; at CDK6/CyclinD3 it was < 0.01 µM; on CDK2/CyclinE1, 0.1 to 1 µM; on CDK4/CyclinD1 it was < 0.01 µM.
